# According to patent publication US20040029944A1 (priority 2001, published 2004):
# Where two headings read alike, the source gives them in different places.
# System: Phytophthora infestans
# Type: in vivo
# Conditions: individual active compound, tomato leaves, protective, evaluated after 6 days
compound,measurement,setting,value
"Cc1ccc(-c2c(Cl)nc(C#N)n2S(=O)(=O)N(C)C)cc1 [Ia, cyazofamid]",Efficacy in % of the untreated control,0.05 ppm in the spray liquor,58%
same,Efficacy in % of the untreated control,0.1 ppm in the spray liquor,74%
same,Efficacy in % of the untreated control,0.2 ppm in the spray liquor,84%
